Reference: ChEMBL document CHEMBL3259622, “Enhancing a CH-π Interaction to Increase the Affinity for 5-HT1A Receptors” (ACS Med Chem Lett, 2014)
Active and inactive are the calls of the source. The rule behind the calls is not given here.

Tests used:
[1] = biological target: T1, 5-hydroxytryptamine receptor 1A (Homo sapiens, UniProt P08908); assay: Displacement of [3H]-[…] from human recombinant 5HT1A receptor expressed in CHO cells after 60 mins by liquid scintillation counting analysis; format: cell-based
T1 sequence (P08908 whole entry): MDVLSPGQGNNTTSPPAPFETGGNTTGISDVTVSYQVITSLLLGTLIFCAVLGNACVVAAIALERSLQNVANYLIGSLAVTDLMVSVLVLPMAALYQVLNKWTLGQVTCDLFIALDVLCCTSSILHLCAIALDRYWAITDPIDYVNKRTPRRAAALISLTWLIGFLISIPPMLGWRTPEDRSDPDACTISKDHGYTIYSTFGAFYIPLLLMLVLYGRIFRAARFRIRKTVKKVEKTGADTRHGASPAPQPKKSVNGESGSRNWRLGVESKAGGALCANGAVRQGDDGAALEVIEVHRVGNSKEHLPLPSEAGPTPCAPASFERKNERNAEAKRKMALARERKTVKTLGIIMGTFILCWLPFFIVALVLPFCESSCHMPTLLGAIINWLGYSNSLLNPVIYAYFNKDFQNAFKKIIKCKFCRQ

[2] = biological target: T2, 5-hydroxytryptamine receptor 1A (Rattus norvegicus, UniProt P19327); assay: Agonist activity at Wistar rat brain 5HT1A receptor assessed as inhibition of firing rate of dorsal raphe nucleus by electrophysiological analysis; format: tissue-based
T2 sequence (P19327 whole entry): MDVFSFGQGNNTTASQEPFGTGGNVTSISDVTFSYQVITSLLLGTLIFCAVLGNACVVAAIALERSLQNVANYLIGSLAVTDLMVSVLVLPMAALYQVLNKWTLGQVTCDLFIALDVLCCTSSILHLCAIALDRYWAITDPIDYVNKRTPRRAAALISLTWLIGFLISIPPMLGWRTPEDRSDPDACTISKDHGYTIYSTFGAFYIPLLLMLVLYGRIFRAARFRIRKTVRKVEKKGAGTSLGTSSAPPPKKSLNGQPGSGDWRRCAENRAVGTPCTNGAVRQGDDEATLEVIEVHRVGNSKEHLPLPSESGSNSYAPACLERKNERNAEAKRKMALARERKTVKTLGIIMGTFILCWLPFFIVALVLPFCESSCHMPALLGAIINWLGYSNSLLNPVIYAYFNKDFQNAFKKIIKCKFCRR

[3] = biological target: T3, 5-hydroxytryptamine receptor 1A (Rattus norvegicus) (UniProt P19327); assay: Agonist activity at Wistar rat brain 5HT1A receptor assessed as inhibition of firing rate of dorsal raphe nucleus by electrophysiological analysis in presence of WAY-100635; format: tissue-based
T3 sequence (whole entry): T2 sequence (P19327 whole entry)

[4] = biological target: T4, 5-hydroxytryptamine receptor 1A (Homo sapiens) (UniProt P08908); assay: Displacement of [3H]-[…] from human recombinant 5HT1A receptor expressed in CHO cells assessed as residual activity at 1 uM after 60 mins by liquid scintillation counting analysis; format: cell-based
T4 sequence (whole entry): T1 sequence (P08908 whole entry)

SMILES	Ki [1] [µM]	further results
Cc1cc(C)cc(C2=CCN(CCN3C(=O)c4ccccc4C3=O)CC2)c1	0.105	–
O=C(NCCN1CCN(c2ccc(F)cc2)CC1)c1ccc2ccccc2c1	0.0543	–
O=C(NCCN1CCN(c2cc(F)cc(F)c2)CC1)c1ccc2ccccc2c1	0.029	–
O=C(NCCN1CC=C(c2ccccc2)CC1)c1cnc2ccccc2n1	0.00376	IC50 [2]: 0.46 µM; inhibition [3]: inactive
O=C(NCCN1CC=C(c2cc(F)cc(F)c2)CC1)c1ccc2ccccc2c1	0.00729	–
O=C(NCCN1CCN(c2ccccc2)CC1)c1ccc2ccccc2c1	0.0247	–
O=C(NCCN1CC=C(c2ccc(F)cc2)CC1)c1ccc2ccccc2c1	0.0335	–
O=C(NCCN1CC=C(c2cc(F)cc(F)c2)CC1)c1cnc2ccccc2n1	0.00262	IC50 [2]: 0.095 µM; inhibition [3]: inactive
O=C1c2ccccc2C(=O)N1CCN1CCN(c2ccc(Cl)cc2)CC1	–	Activity [4]: 97.4%
Cc1ccc(C2=CCN(CCNC(=O)c3cnc4ccccc4n3)CC2)cc1	0.00755	–
O=C(NCCN1CCN(c2ccc(Cl)cc2)CC1)c1ccc2ccccc2c1	0.0507	–
Cc1cc(C)cc(C2=CCN(CCNC(=O)c3ccc4ccccc4c3)CC2)c1	0.00806	–
O=C(NCCN1CC=C(c2ccc(Cl)cc2)CC1)c1ccc2ccccc2c1	0.0425	–
Cc1ccc(C2=CCN(CCN3C(=O)c4ccccc4C3=O)CC2)cc1	–	Activity [4]: 80%
O=C(NCCN1CCN(c2cc(F)cc(F)c2)CC1)c1cnc2ccccc2n1	0.0111	IC50 [2]: 1.14 µM; inhibition [3]: inactive
Cc1ccc(N2CCN(CCNC(=O)c3cnc4ccccc4n3)CC2)cc1	0.0273	–
O=C(NCCN1CCN(c2ccc(Cl)cc2)CC1)c1cnc2ccccc2n1	0.027	–
Cc1cc(C)cc(C2=CCN(CCNC(=O)c3cnc4ccccc4n3)CC2)c1	0.0011	IC50 [2]: 0.172 µM; inhibition [3]: inactive

SMILES	Ki [1] [µM]	further results
O=C1c2ccccc2C(=O)N1CCN1CC=C(c2cc(F)cc(F)c2)CC1	0.425	–
O=C1c2ccccc2C(=O)N1CCN1CC=C(c2ccccc2)CC1	0.706	–
Cc1cc(C)cc(N2CCN(CCNC(=O)c3ccc4ccccc4c3)CC2)c1	0.021	–
Cc1ccc(N2CCN(CCN3C(=O)c4ccccc4C3=O)CC2)cc1	–	Activity [4]: 97%
O=C1c2ccccc2C(=O)N1CCN1CCN(c2ccc(F)cc2)CC1	–	Activity [4]: 80.4%
Cc1ccc(C2=CCN(CCNC(=O)c3ccc4ccccc4c3)CC2)cc1	0.0316	–
O=C1c2ccccc2C(=O)N1CCN1CCN(c2cc(F)cc(F)c2)CC1	–	Activity [4]: 79.6%
O=C(NCCN1CC=C(c2ccc(F)cc2)CC1)c1cnc2ccccc2n1	0.014	–
O=C(NCCN1CCN(c2ccccc2)CC1)c1cnc2ccccc2n1	0.03	IC50 [2]: 1.68 µM; inhibition [3]: inactive
O=C1c2ccccc2C(=O)N1CCN1CC=C(c2ccc(Cl)cc2)CC1	0.631	–
O=C(NCCN1CCN(c2ccc(F)cc2)CC1)c1cnc2ccccc2n1	0.0633	–
O=C(NCCN1CC=C(c2ccc(Cl)cc2)CC1)c1cnc2ccccc2n1	0.0093	–
O=C1c2ccccc2C(=O)N1CCN1CCN(c2ccccc2)CC1	–	Activity [4]: 82%
Cc1cc(C)cc(N2CCN(CCN3C(=O)c4ccccc4C3=O)CC2)c1	0.496	–
O=C1c2ccccc2C(=O)N1CCN1CC=C(c2ccc(F)cc2)CC1	–	Activity [4]: 76.8%
O=C(NCCN1CC=C(c2ccccc2)CC1)c1ccc2ccccc2c1	0.0061	–
Cc1cc(C)cc(N2CCN(CCNC(=O)c3cnc4ccccc4n3)CC2)c1	0.00367	IC50 [2]: 0.383 µM; inhibition [3]: inactive
Cc1ccc(N2CCN(CCNC(=O)c3ccc4ccccc4c3)CC2)cc1	0.221	–
